Data published in patent US6066642A, “Dihydropyridine-, pyridine-, benzopyran-4-one- and triazoloquinazoline derivative, their preparation and their use as adenosine receptor antagonists” (priority 1998, dated 2000).
Read-outs that look alike come from different tables or passages of the source.

How the values were obtained:
rat A3 receptor = target: T1, rat A3 receptor (Rattus norvegicus, UniProt P28647); assay: A3-agonist-elicited inhibition of adenylyl cyclase in membranes from CHO cells stably expressing the rat A3 receptor; assay type: biochemical; settings: compound 50 μM, 1 μM forskolin
T1 construct: expressed in transfected cells; host or cells: CHO cells (membranes)
T1 sequence (P28647 1-320): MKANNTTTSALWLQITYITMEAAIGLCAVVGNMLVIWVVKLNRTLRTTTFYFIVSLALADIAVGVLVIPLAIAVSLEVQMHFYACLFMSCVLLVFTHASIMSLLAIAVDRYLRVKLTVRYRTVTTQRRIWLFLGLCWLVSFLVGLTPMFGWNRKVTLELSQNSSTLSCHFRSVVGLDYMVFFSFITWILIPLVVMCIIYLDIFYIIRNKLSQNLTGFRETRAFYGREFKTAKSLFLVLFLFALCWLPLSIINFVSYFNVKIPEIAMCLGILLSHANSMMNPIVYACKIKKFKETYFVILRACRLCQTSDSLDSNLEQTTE
Procedure: ^a Assayed in membranes from CHO cells stably expressing the rat
A3 receptor in the presence of 1 μM forskolin.

A2a receptors = target: T2, A2a receptors (Rattus norvegicus, UniProt P30543); assay: radioligand binding, displacement of specific [3H]CGS 21680 binding in rat striatal membranes; settings: for inhibition at 100 µM: 10^-4 M
T2 construct: Displacement of specific [^3 H]; from tissue; host or cells: rat striatal membranes
Procedure: ^b Displacement of specific [^3 H]
or as a percentage of specific binding displaced at 100 μM.

A1 receptors = target: T3, A1 receptors (Rattus norvegicus, UniProt P25099); assay: biochemical; assay type: binding; settings: for Ki: rat brain membranes; for inhibition at 100 µM: 10^-4 M, read-out: displacement of specific binding rA1
T3 sequence (P25099 1-326): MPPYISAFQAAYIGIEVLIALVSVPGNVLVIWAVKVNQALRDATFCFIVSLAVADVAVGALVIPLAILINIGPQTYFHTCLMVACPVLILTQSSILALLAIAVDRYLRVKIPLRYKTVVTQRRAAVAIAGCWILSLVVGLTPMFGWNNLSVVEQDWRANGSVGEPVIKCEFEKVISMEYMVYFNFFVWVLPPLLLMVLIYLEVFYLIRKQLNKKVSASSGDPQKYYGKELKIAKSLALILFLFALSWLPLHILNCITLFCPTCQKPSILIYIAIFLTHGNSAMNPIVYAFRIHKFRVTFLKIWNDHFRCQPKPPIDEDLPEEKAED
Procedure: ^a Displacement of specific [^3 H] PIA binding in rat brain
percentage of specific binding displaced at 100 μM.

human A3 receptors = target: T4, human A3 receptors (Homo sapiens, UniProt P0DMS8); assay: radioligand binding, displacement of specific [125I]AB-MECA binding at human A3 receptors expressed in HEK-293 cells; settings: for Ki: [125I]AB-MECA; for inhibition at 100 µM: 10^-4 M
T4 construct: expressed in transfected cells; host or cells: HEK-293 cells (membranes)
T4 sequence (P0DMS8 1-318): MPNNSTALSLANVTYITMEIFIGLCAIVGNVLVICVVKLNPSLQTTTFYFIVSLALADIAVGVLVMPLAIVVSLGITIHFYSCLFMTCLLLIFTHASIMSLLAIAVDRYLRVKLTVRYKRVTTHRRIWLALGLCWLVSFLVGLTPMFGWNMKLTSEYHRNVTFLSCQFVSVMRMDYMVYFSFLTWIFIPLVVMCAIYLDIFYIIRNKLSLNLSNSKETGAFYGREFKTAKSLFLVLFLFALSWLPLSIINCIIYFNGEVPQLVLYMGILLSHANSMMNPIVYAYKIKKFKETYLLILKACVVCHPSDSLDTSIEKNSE
Procedure: A3 receptors expressed in HEK293 cells, in membranes, expressed as
binding displaced at 100 μM.

[1] = IB-MECA 10^-6 M, read-out: % Inhibition of adenylyl cyclase, IB-MECA (10^-6 M)
[2] = IB-MECA 10^-7 M, read-out: % Inhibition of adenylyl cyclase, IB-MECA (10^-7 M)
[3] = Table 3, [3H]CGS 21680, rat striatal membranes, read-out: Ki rA2a
[4] = Table 3, [3H]PIA, read-out: Ki rA1
[5] = Table 5, [3H]CGS 21680, rat striatal membranes, read-out: Ki rA2a
[6] = Table 5, [3H]PIA, read-out: Ki rA1
[7] = Table 5, HEK-293 membranes, read-out: Ki hA3
[8] = Table 6, [3H]PIA, read-out: K2 (rA1)
[9] = Table 4, HEK-293 membranes, read-out: Ki hA3
[10] = Table 4, read-out: displacement of specific binding rA2a
[11] = Table 6, HEK-293 membranes, read-out: K2 (hA3)
[12] = Table 6, [3H]CGS 21680, rat striatal membranes, read-out: K2 (rA2a)
[13] = Table 7, [3H]PIA, read-out: Ki (rA1)
[14] = Table 15, HEK membranes, read-out: Ki hA3
[15] = Table 15, [3H]CGS 21680, rat striatal membranes, read-out: Ki rA2A
[16] = Table 15, [3H]PIA, read-out: Ki rA1

T2 sequence (P30543 whole entry): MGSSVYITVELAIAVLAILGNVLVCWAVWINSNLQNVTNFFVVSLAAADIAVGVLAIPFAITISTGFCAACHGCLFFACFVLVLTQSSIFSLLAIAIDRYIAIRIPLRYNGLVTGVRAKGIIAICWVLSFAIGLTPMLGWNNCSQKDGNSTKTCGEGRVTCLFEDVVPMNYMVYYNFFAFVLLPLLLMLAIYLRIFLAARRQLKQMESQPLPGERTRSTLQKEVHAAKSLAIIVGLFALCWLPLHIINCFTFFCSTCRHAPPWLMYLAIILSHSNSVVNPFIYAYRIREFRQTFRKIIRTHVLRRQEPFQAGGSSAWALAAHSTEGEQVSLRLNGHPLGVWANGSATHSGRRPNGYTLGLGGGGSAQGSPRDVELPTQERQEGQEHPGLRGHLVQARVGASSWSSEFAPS

Structure (SMILES): CCOc1cc(OCC)c2c(=O)c(OCC)c(-c3ccccc3)oc2c1 [Compound 3a, 3,5,7-Triethoxyflavone]
- inhibition at 50 µM (rat A3 receptor; [1]): 19.1 ± 7.4%
- inhibition at 50 µM (rat A3 receptor; [2]): 2.2 ± 2.2%
- Ki (A2a receptors; [3]): 3.31 µM
- Ki (A1 receptors; [4]): 0.603 µM

Structure (SMILES): CCOc1c2ccoc2cc2oc(/C=C/c3ccccc3)cc(=O)c12 [Compound 20, 4-ethyloxy-7-trans-styryl-visnagin]
- inhibition at 50 µM (rat A3 receptor; [1]): 40.9 ± 3.7%
- inhibition at 50 µM (rat A3 receptor; [2]): 21.2 ± 3.9%
- Ki (A2a receptors; [5]): 33.8 ± 14.8 µM
- Ki (A1 receptors; [6]): 35.6 ± 12.7 µM

Structure (SMILES): O=c1c(O)c(-c2ccccc2)oc2cc(O)cc(O)c12 [Compound 1, galangin, reference compound]
- inhibition at 50 µM (rat A3 receptor; [1]): 35.3 ± 7.2%
- inhibition at 50 µM (rat A3 receptor; [2]): 23.7 ± 5.1%
- Ki (A2a receptors; [3]): 0.966 ± 0.164 µM
- Ki (A1 receptors; [4]): 0.863 ± 0.092 µM

Structure (SMILES): CCOC(=O)C1=C(C)NC(C)=C(C(=O)OC)C1c1ccc2c(c1)OCO2 (racemic) [Compound 73, 3-methyl-5-ethyl-2,6-dimethyl-4-[3,4-(methylenedioxy)phenyl]-1,4(R,S)-dihydropyridine-3,5-dicarboxylate]
- Ki (human A3 receptors; Table 9, HEK membranes, read-out: Ki hA3): 4.58 µM
- Ki (A2a receptors; Table 9, [3H]CGS 21680, rat striatal membranes, read-out: Ki rA2A): 5.27 µM
- Ki (A1 receptors; Table 9, [3H]PIA, read-out: Ki rA1): 3.66 µM

Structure (SMILES): COc1cc(OC)c(-c2oc3ccccc3c(=O)c2O)c(OC)c1 [Compound 9, reference compound]
- Ki (human A3 receptors; Table 3, HEK-293 membranes, read-out: Ki hA3): 50.1 ± 7.8 µM
- rA1/hA3 (human A3 receptors; Table 3, ratio of Ki): 0.15
- inhibition at 100 µM (A2a receptors; Table 3, read-out: displacement of specific binding rA2a): < 10%
- Ki (A1 receptors; [4]): 7.32 ± 1.36 µM

Structure (SMILES): COc1c2ccoc2cc2oc(/C=C/c3ccccc3)cc(=O)c12 [Compound 19, 4-methyloxy-7-trans-styryl-visnagin]
- Ki (human A3 receptors; [7]): 8.28 ± 2.69 µM
- rA1/hA3 (human A3 receptors; Table 5, ratio of Ki): 0.37
- Ki (A2a receptors; [5]): 11.5 ± 1.3 µM
- Ki (A1 receptors; [6]): 32.6 ± 10.5 µM

Structure (SMILES): COc1c(O)cc2oc(-c3ccc(O)cc3)cc(=O)c2c1O [Compound 32, hispidulin, reference compound]
- inhibition at 10 µM (human A3 receptors; Table 6, 10^-5 M, read-out: % inhibition hA3): 63 ± 2%
- Ki (A2a receptors; striatal membranes, read-out: K2 (rA2a)): 6.48 ± 0.65 µM
- Ki (A1 receptors; [8]): 1.61 ± 0.29 µM

Structure (SMILES): COc1ccc2c(c1)C(=O)[C@H](O)[C@@H](C#Cc1ccccc1)O2 (relative stereo) [Compound 16]
- rA1/hA3 (human A3 receptors): 6.2
- Ki (human A3 receptors; [9]): 8.17 µM
- inhibition at 100 µM (A2a receptors; [10]): < 10%
- Ki (A1 receptors; Table 4, [3H]PIA, read-out: Ki rA1): 50.3 ± 17 µM

Structure (SMILES): COC(=O)c1c(C)nc(C)c(C(=O)OC)c1-c1ccccc1[N+](=O)[O-] [Compound 82, reference compound]
- inhibition at 100 µM (human A3 receptors; Table 10, read-out: displacement of specific binding hA3): < 10%
- inhibition at 100 µM (A2a receptors; Table 10, read-out: displacement of specific binding rA2a): < 10%
- inhibition at 100 µM (A1 receptors; Table 10): < 10%

Structure (SMILES): CC(=O)Oc1cc(OC(C)=O)c2c(=O)c(OC(C)=O)c(-c3ccccc3)oc2c1 [Compound 34, 3,5,7-triacetoxyflavone]
- Ki (human A3 receptors; [11]): 17.5 ± 2 µM
- Ki (A2a receptors; [12]): 56.5 ± 9.5 µM
- Ki (A1 receptors; [8]): 11.6 ± 4.4 µM

Structure (SMILES): COc1ccc(-c2oc3cc(OC)cc(OC)c3c(=O)c2OC)c(OC)c1 [Compound 38, 2',3,4',5,7-pentamethyloxyflavone]
- Ki (human A3 receptors; [11]): 2.65 µM
- Ki (A2a receptors; [12]): 46.7 ± 2.7 µM
- Ki (A1 receptors; [8]): 27.6 ± 7.5 µM

Structure (SMILES): COc1cc2c(c(O)c1OC)c(=O)c1ccccc1n2C [Compound 51, 1-hydroxy-2,3-dimethoxy-10-methyl-9(10H)-acridinone, reference compound]
- inhibition at 100 µM (human A3 receptors; Table 7, read-out: % of specific binding displaced hA3): 63 ± 7%
- Ki (A2a receptors; Table 7, [3H]CGS 21680, rat striatal membranes, read-out: Ki (rA2A)): 6.47 ± 1.9 µM
- Ki (A1 receptors; [13]): 12.7 ± 1.2 µM

Structure (SMILES): COc1c2ccoc2cc2oc(C=O)cc(=O)c12 [Compound 18, 4-Methoxy-7-formyl-5H-furo [3,2-g][1]-benzopyrano-5-one]
- Ki (human A3 receptors; [7]): 88.9 ± 27.1 µM
- rA1/hA3 (human A3 receptors; Table 5, ratio of Ki): > 2
- inhibition at 100 µM (A2a receptors; Table 5, read-out: % of specific binding displaced rA2a): 25 ± 8%
- inhibition at 100 µM (A1 receptors; Table 5): < 10%

Structure (SMILES): CC(C)(C)OC(=O)NCCCC(=O)Nc1nc2ccc(Cl)cc2c2nc(-c3ccco3)nn12 [Compound 154]
- Ki (human A3 receptors; [14]): 0.032 µM
- Ki (A2a receptors; [15]): 0.173 µM
- Ki (A1 receptors; [16]): 0.0913 ± 0.0132 µM

Structure (SMILES): COc1c2ccoc2cc2oc(/C=C/C=Cc3ccccc3)cc(=O)c12 [Compound 22, 4-methoxy-7-phenylbutadienyl visnagin]
- inhibition at 100 µM (human A3 receptors; Table 5, read-out: displacement of specific binding hA3): < 10%
- inhibition at 100 µM (A2a receptors; Table 5, read-out: displacement of specific binding rA2a): < 10%
- inhibition at 100 µM (A1 receptors; Table 5): < 10%

Structure (SMILES): O=c1[nH]c2ccc(Cl)cc2c2nc(-c3ccco3)nn12 [Compound 158, 9-Chloro-2-(2-furyl)[1,2,4]triazolo[1,5-c]quinazolin-5-(6H)-one]
- Ki (human A3 receptors; [14]): 0.26 ± 0.087 µM
- Ki (A2a receptors; [15]): 4 µM
- Ki (A1 receptors; [16]): 3 µM

Structure (SMILES): CCOc1c2ccoc2cc2oc(/C=C/C=Cc3ccccc3)cc(=O)c12 [Compound 23, 4-ethoxy-7-phenylbutadienyl visnagin]
- rA1/hA3 (human A3 receptors; Table 5, ratio of Ki): > 4
- Ki (A2a receptors; [5]): 167 µM
- inhibition at 100 µM (A1 receptors; Table 5): < 10%

Structure (SMILES): CCOC(=O)c1c(C)nc(-c2ccccc2)c(C(=O)OCc2ccccc2)c1C#Cc1ccccc1 [B]
- rA1/hA3 (human A3 receptors): 2.6
- inhibition at 100 µM (A2a receptors; Table 11, read-out: % inhibition rA2A): 43 ± 2%
- Ki (A1 receptors; Table 11, [3H]PIA, read-out: Ki rA1): 7.01 ± 1.98 µM

Structure (SMILES): COc1ccc2c(c1)C(=O)[C@H](O)[C@@H](/C=C/c1ccccc1)O2 (relative stereo) [Compound 15]
- inhibition at 50 µM (rat A3 receptor; [1]): 39.2 ± 3%
- inhibition at 50 µM (rat A3 receptor; [2]): 25.9 ± 2.4%
- rA1/hA3 (human A3 receptors): > 8
- Ki (human A3 receptors; [9]): 21.1 µM
- inhibition at 100 µM (A2a receptors; [10]): < 10%
- inhibition at 100 µM (A1 receptors; Table 4): < 10%

Structure (SMILES): O=C(C=Cc1ccccc1)Nc1nc2ccc(Cl)cc2c2nc(-c3ccco3)nn12 [Compound 161]
- Ki (human A3 receptors; Table 16, HEK membranes, read-out: Ki hA3): 0.06 ± 0.0063 µM
- Ki (A2a receptors; Table 16, [3H]CGS 21680, rat striatal membranes, read-out: Ki rA2A): 0.0598 ± 0.0134 µM
- Ki (A1 receptors; Table 16, [3H]R-PIA, read-out: Ki rA1): 0.282 ± 0.071 µM

Structure (SMILES): COC1C=CC23c4cc5c(cc4C[N+](C)(CC2OC(C)=O)C3C1)OCO5 (stereo not shown) [Compound 48, acetylhaemanthine methiodide, reference compound]
- inhibition at 100 µM (human A3 receptors; Table 7, read-out: displacement of specific binding hA3): < 10%
- inhibition at 100 µM (A2a receptors; Table 7, read-out: displacement of specific binding rA2A): < 10%
- Ki (A1 receptors; [13]): 52.5 ± 3.7 µM

Structure (SMILES): COc1cc2oc(-c3ccc(O)cc3)cc(=O)c2c(O)c1OC [Compound 33, cirsimaritin, reference compound]
- Ki (human A3 receptors; [11]): 1.72 µM
- Ki (A2a receptors; [12]): 3 ± 0.7 µM
- Ki (A1 receptors; [8]): 1.2 µM
